Source: patent US9399626B2, “2-thiopyrimidinones” (Pfizer Inc., priority 2011, dated 2016)
Counter-ions that a name gives are not always drawn.

Molecular target: T1, MPO (purified from human polynuclear leukocytes) (Homo sapiens, UniProt P05164)
T1 construct: purified from human polynuclear leukocytes; purchased Calbiochem/EMD Biosciences; host or cells: human polynuclear leukocytes (natural source)
Test: MPO Amplex Red Activity Assay
Type: biochemical
Details: Table 1, 2 μM H2O2, pH 7.4
Method in brief: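 Potency is given as kinact/KI: kobs values from 600 s progress curves, minus the uninhibited rate, are fit against inhibitor concentration. Reactions use 2 μM H2O2, 30 μM Amplex Red, pH 7.4 phosphate buffer with NaCl, DTPA and 2% DMSO, started with […] human MPO. Readout is resorufin fluorescence, catalase background subtracted.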

T1 sequence (P05164 279-745 limits assumed): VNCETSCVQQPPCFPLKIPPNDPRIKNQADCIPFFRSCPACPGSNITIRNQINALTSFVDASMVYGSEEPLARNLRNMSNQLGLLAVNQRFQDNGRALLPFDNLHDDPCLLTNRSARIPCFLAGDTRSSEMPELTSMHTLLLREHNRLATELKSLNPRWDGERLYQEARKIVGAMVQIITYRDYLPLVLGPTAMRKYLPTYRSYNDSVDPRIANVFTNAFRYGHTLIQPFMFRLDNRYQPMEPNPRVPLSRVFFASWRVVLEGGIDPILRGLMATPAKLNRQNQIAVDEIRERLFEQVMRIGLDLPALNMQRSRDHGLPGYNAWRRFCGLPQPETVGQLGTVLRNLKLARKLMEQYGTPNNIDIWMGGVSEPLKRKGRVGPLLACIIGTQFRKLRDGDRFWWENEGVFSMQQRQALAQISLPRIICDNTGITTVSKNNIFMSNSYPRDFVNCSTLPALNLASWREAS
T1 sequence (P05164 165-273 limits assumed): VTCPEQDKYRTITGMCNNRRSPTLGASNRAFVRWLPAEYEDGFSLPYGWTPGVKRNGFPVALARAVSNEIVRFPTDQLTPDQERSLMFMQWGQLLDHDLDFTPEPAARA

| Structure (SMILES) | MPO kinact/Ki |
| --- | --- |
| COCCn1c(-c2cc(C#N)ccc2OC)cc(=O)[nH]c1=S [Example 171, 4-methoxy-3-[3-(2-methoxyethyl)-6-oxo-2-thioxo-1,2,3,6-tetrahydropyrimidin-4-yl]benzonitrile] | 8590 1/s per M |
| COc1ccc(-c2cc(=O)[nH]c(=S)n2CCOC(C)C)cc1 [Example 172, 1-(2-isopropoxyethyl)-6-(4-methoxyphenyl)-2-thioxo-2,3-dihydropyrimidin-4(1H)-one] | 2950 1/s per M |
| COc1ccccc1-c1cc(=O)[nH]c(=S)n1CCOC(C)C [Example 173, 1-(2-isopropoxyethyl)-6-(2-methoxyphenyl)-2-thioxo-2,3-dihydropyrimidin-4(1H)-one] | 2910 1/s per M |
| COc1ccc(-c2cc(=O)[nH]c(=S)n2C[C@H](C)N)c(OC)c1 [Example 176, 1-[(2S)-2-aminopropyl]-6-(2,4-dimethoxyphenyl)-2-thioxo-2,3-dihydropyrimidin-4(1H)-one hydrochloride] | 2160 1/s per M |
| CNCCn1c(-c2ccc(OC)cc2OC)cc(=O)[nH]c1=S [Example 177, 6-(2,4-dimethoxyphenyl)-1-[2-(methylamino)ethyl]-2-thioxo-2,3-dihydropyrimidin-4(1H)-one formate] | 5130 1/s per M |
| COc1ccc(-c2cc(=O)[nH]c(=S)n2CCCO)c(OC)c1 [Example 181, 6-(2,4-dimethoxyphenyl)-1-(3-hydroxypropyl)-2-thioxo-2,3-dihydropyrimidin-4(1H)-one] | 7160 1/s per M |
| NCCn1c(-c2cccc(Br)c2)cc(=O)[nH]c1=S [Example 183, 1-(2-aminoethyl)-6-(3-bromophenyl)-2-thioxo-2,3-dihydropyrimidin-4(1H)-one hydrochloride] | 4830 1/s per M |
| COc1cc(OC)c(-c2cc(=O)[nH]c(=S)n2CCO)cc1F [Example 184, 6-(5-fluoro-2,4-dimethoxyphenyl)-1-(2-hydroxyethyl)-2-thioxo-2,3-dihydropyrimidin-4(1H)-one] | 5970 1/s per M |
| O=c1cc(-c2ccccc2OC(F)(F)F)n(CCO)c(=S)[nH]1 [Example 186, 1-(2-hydroxyethyl)-2-thioxo-6-[2-(trifluoromethoxy)phenyl]-2,3-dihydropyrimidin-4(1H)-one] | 3930 1/s per M |
| COc1ccc(-c2cc(=O)[nH]c(=S)n2CCC(=N)N)c(OC)c1 [Example 187, 3-[6-(2,4-dimethoxyphenyl)-4-oxo-2-thioxo-3,4-dihydropyrimidin-1(2H)-yl]propanimidamide trifluoroacetate] | 5640 1/s per M |
| COc1ccc(-c2cc(=O)[nH]c(=S)n2C(C)C(N)=O)c(OC)c1 (stereo not shown) [Example 188, 2-[6-(2,4-dimethoxyphenyl)-4-oxo-2-thioxo-3,4-dihydropyrimidin-1(2H)-yl]propanamide] | 2180 1/s per M |
| COc1ccc(-c2cc(=O)[nH]c(=S)n2CCC(N)=O)c(OC)c1 [Example 189, 3-[6-(2,4-dimethoxyphenyl)-4-oxo-2-thioxo-3,4-dihydropyrimidin-1(2H)-yl]propanamide] | 2210 1/s per M |
| CNC(=O)Cn1c(-c2ccc(OC)cc2OC)cc(=O)[nH]c1=S [Example 190, 2-[6-(2,4-dimethoxyphenyl)-4-oxo-2-thioxo-3,4-dihydropyrimidin-1(2H)-yl]-N-methylacetamide] | 4090 1/s per M |
| COc1ccc(-c2cc(=O)[nH]c(=S)n2CCCCN)c(OC)c1 [Example 191, 1-(4-aminobutyl)-6-(2,4-dimethoxyphenyl)-2-thioxo-2,3-dihydropyrimidin-4(1H)-one hydrochloride] | 14100 1/s per M |
| COc1ccc(-c2cc(=O)[nH]c(=S)n2CC(C)(C)O)c(OC)c1 [Example 194, 6-(2,4-dimethoxyphenyl)-1-(2-hydroxy-2-methylpropyl)-2-thioxo-2,3-dihydropyrimidin-4(1H)-one] | 2560 1/s per M |
| COc1ccc(-c2cc(=O)[nH]c(=S)n2CC(C)CO)c(OC)c1 (stereo not shown) [Example 195, 6-(2,4-dimethoxyphenyl)-1-(3-hydroxy-2-methylpropyl)-2-thioxo-2,3-dihydropyrimidin-4(1H)-one] | 5350 1/s per M |
| COc1ccc(-c2cc(=O)[nH]c(=S)n2CCCCO)c(OC)c1 [Example 196, 6-(2,4-dimethoxyphenyl)-1-(4-hydroxybutyl)-2-thioxo-2,3-dihydropyrimidin-4(1H)-one] | 5640 1/s per M |
| COc1ccc(-c2cc(=O)[nH]c(=S)n2CC(O)CN)c(OC)c1 (stereo not shown) [Example 199, 1-(3-amino-2-hydroxypropyl)-6-(2,4-dimethoxyphenyl)-2-thioxo-2,3-dihydropyrimidin-4(1H)-one hydrochloride] | 9080 1/s per M |
| COc1ccc(-c2cc(=O)[nH]c(=S)n2C[C@@H](O)CN)c(OC)c1 [Example 200, 1-[(2S)-3-amino-2-hydroxypropyl]-6-(2,4-dimethoxyphenyl)-2-thioxo-2,3-dihydropyrimidin-4(1H)-one trifluoroacetate] | 4930 1/s per M |
| COc1ccc(-c2cc(=O)[nH]c(=S)n2CC(O)CO)c(OC)c1 (stereo not shown) [Example 201, 1-(2,3-dihydroxypropyl)-6-(2,4-dimethoxyphenyl)-2-thioxo-2,3-dihydropyrimidin-4(1H)-one] | 4350 1/s per M |
| COc1cc(OC)c(-c2cc(=O)[nH]c(=S)n2CCO)cc1OC [Example 202, 1-(2-hydroxyethyl)-2-thioxo-6-(2,4,5-trimethoxyphenyl)-2,3-dihydropyrimidin-4(1H)-one] | 8280 1/s per M |

More lines, now with the values ahead:

| MPO kinact/Ki | Structure (SMILES) |
| --- | --- |
| 17800 1/s per M | COc1ccc(OC)c(-c2cc(=O)[nH]c(=S)n2CCO)c1 [Example 169, 6-(2,5-dimethoxyphenyl)-1-(2-hydroxyethyl)-2-thioxo-2,3-dihydropyrimidin-4(1H)-one] |
| 4030 1/s per M | COc1ccc(C#N)cc1-c1cc(=O)[nH]c(=S)n1CC(N)=O [Example 170, 2-[6-(5-cyano-2-methoxyphenyl)-4-oxo-2-thioxo-3,4-dihydropyrimidin-1(2H)-yl]acetamide] |
| 10500 1/s per M | COc1ccc(-c2cc(=O)[nH]c(=S)n2CC(N)=O)c(OC)c1 [Example 174, 2-[6-(2,4-dimethoxyphenyl)-4-oxo-2-thioxo-3,4-dihydropyrimidin-1(2H)-yl]acetamide] |
| 459 1/s per M | COc1ccc(-c2cc(=O)[nH]c(=S)n2C[C@@H](C)N)c(OC)c1 [Example 175, 1-[(2R)-2-aminopropyl]-6-(2,4-dimethoxyphenyl)-2-thioxo-2,3-dihydropyrimidin-4(1H)-one hydrochloride] |
| 11100 1/s per M | COc1ccc(-c2cc(=O)[nH]c(=S)n2CCCN)c(OC)c1 [Example 178, 1-(3-aminopropyl)-6-(2,4-dimethoxyphenyl)-2-thioxo-2,3-dihydropyrimidin-4(1H)-one formate] |
| 2790 1/s per M | COc1ccc(-c2cc(=O)[nH]c(=S)n2CC(C)O)c(OC)c1 (stereo not shown) [Example 179, 6-(2,4-dimethoxyphenyl)-1-(2-hydroxypropyl)-2-thioxo-2,3-dihydropyrimidin-4(1H)-one] |
| 6960 1/s per M | COCCn1c(-c2c(OC)cccc2OC)cc(=O)[nH]c1=S [Example 180, 6-(2,6-dimethoxyphenyl)-1-(2-methoxyethyl)-2-thioxo-2,3-dihydropyrimidin-4(1H)-one] |
| 8200 1/s per M | COCCn1c(-c2ccc(OC)cc2OC)cc(=O)[nH]c1=S [Example 182, 6-(2,4-dimethoxyphenyl)-1-(2-methoxyethyl)-2-thioxo-2,3-dihydropyrimidin-4(1H)-one] |
| 9740 1/s per M | COc1ccc(-c2cc(=O)[nH]c(=S)n2CCN)c2ccccc12 [Example 185, 1-(2-aminoethyl)-6-(4-methoxy-1-naphthyl)-2-thioxo-2,3-dihydropyrimidin-4(1H)-one hydrochloride] |
| 10800 1/s per M | CNCCCn1c(-c2ccc(OC)cc2OC)cc(=O)[nH]c1=S [Example 192, 6-(2,4-dimethoxyphenyl)-1-[3-(methylamino)propyl]-2-thioxo-2,3-dihydropyrimidin-4(1H)-one hydrochloride] |
| 458 1/s per M | COc1ccc(-c2cc(=O)[nH]c(=S)n2CCC(=O)O)c(OC)c1 [Example 193, 3-[6-(2,4-dimethoxyphenyl)-4-oxo-2-thioxo-3,4-dihydropyrimidin-1(2H)-yl]propanoic acid] |
| 5650 1/s per M | COc1ccc(-c2cc(=O)[nH]c(=S)n2C[C@H](O)CN)c(OC)c1 [Example 197, 1-[(2R)-3-amino-2-hydroxypropyl]-6-(2,4-dimethoxyphenyl)-2-thioxo-2,3-dihydropyrimidin-4(1H)-one trifluoroacetate] |
| 8460 1/s per M | COc1cc(OC)c(-c2cc(=O)[nH]c(=S)n2CCN)cc1OC [Example 198, 1-(2-aminoethyl)-2-thioxo-6-(2,4,5-trimethoxyphenyl)-2,3-dihydropyrimidin-4(1H)-one hydrochloride] |
| 3450 1/s per M | COc1ccc(-c2cc(=O)[nH]c(=S)n2C[C@H](O)CO)c(OC)c1 [Example 203, 1-[(2S)-2,3-dihydroxypropyl]-6-(2,4-dimethoxyphenyl)-2-thioxo-2,3-dihydropyrimidin-4(1H)-one] |
| 3900 1/s per M | COc1ccc(-c2cc(=O)[nH]c(=S)n2C[C@@H](O)CO)c(OC)c1 [Example 204, 1-[(2R)-2,3-dihydroxypropyl]-6-(2,4-dimethoxyphenyl)-2-thioxo-2,3-dihydropyrimidin-4(1H)-one] |
| 4900 1/s per M | COc1ccc(-c2cc(=O)[nH]c(=S)n2CC(N)=O)c2ccccc12 [Example 205, 2-[6-(4-methoxy-1-naphthyl)-4-oxo-2-thioxo-3,4-dihydropyrimidin-1(2H)-yl]acetamide] |
